Laboratory results taken from patent US8673268B2, “Molecular targets and compounds, and methods to identify the same, useful in the treatment of joint degenerative and inflammatory diseases” (Galapagos N.V., priority 2004, dated 2014).

Legend:
[1] = tested on: MMP1 expression by synovial fibroblasts (SFs); test: reverse MMP1 assay: MMP1 ELISA on supernatant of SFs activated with TNFα-based trigger; assay type: cell-based; details: Homo sapiens, Fibroblast, supernatant collected 48 hours after trigger, FIG. 5, read-out: IC50 for reduction of TNF-based trigger-induced MMP1 expression by SFs
Procedure: A 384-well format ELISA for measurement of MMP1 is developed. Various primary antibodies are tested, as well as various ELISA protocols. The following protocol is developed and validated to measure MMP1 levels in SF supernatant in 384 well plates: white Lumitrac 600 384 well plates (Greiner) are coated with 2 μg/ml anti-MMP1 antibody MAB1346 (Chemicon). The antibody is diluted in buffer 40 (1.21 g Tris base (Sigma), 0.58 g NaCl (Calbiochem) and 5 ml 10% NaN3 (Sigma) in 1 L milliQ water and adjusted to pH 8.5). After overnight incubation at 4° C., plates are washed with PBS (80 g NaCl, 2 g KCl (Sigma), 11.5 g Na2HPO4.7H2O and 2 g KH2PO4 in 10 L milliQ; pH 7.4) and blocked with 100 μl/well Casein buffer (2% Casein (VWR International) in PBS). Next day, casein buffer is removed from ELISA plates and replaced by 50 μl/well EC buffer (4 g casein, 2.13 g Na2HPO4 (Sigma), 2 g bovine albumin (Sigma), 0.69 g NaH2PO4.H2O (Sigma), 0.5 g CHAPS (Roche), 23.3 g NaCl, 4 ml 0.5 M EDTA pH 8 (Invitrogen), 5 ml 10% NaN3 in 1 L milliQ and adjusted to pH 7.0). 0.25 mM DTT (Sigma) are added to the thawed samples plates. After removal of the EC buffer, 20 μl of sample are transferred to the ELISA plates. […] Readout is performed on the Luminoscan Ascent Luminometer (Labsystems) with an integration time of 200 msec or with an Envision reader (Perkin Elmer). […]

TIMP-2 secretion by SFs = test: TIMP-2 secretion ELISA; assay type: cell-based, human
Procedure: The secretion of TIMP-2 by SFs is determined to eliminate the factor of general suppression of SF secretory activity by the Ad-siRNAs as the cause of reduced expression of MMP1 in the reverse MMP1 assay. TIMP-2 is a protein that SFs express and secret constitutively. Secretion of TIMP-2 into the SF supernatant is blocked by the addition of BrefeldinA, a small molecule inhibitor of secretion. The level of SF TIMP-2 protein secretion is detected by ELISA. RASF cells are seeded in 96-well gelatin coated plates at 3000 cells/well in 100 μl synovial growth medium. After overnight incubation, cells are infected and incubated for 5 days at 37° C. in a 10% CO2 incubator. […] TIMP2 levels are determined by a standard ELISA assay, essentially as outlined for the MMP1 ELISA. […] After 5 minutes incubation at room temperature in the dark, luminescence is quantified on a luminometer (Luminoscan Ascent).
The procedure described above (plate layout, MOI, method for determination of the cutoff) applied for these experiments is identical to the one described for the toxicity measurements (i.e., a primary test with 12 μl infection volume and a retest with 3, 6, 12 μl infection volumes) differing only in that the cutoff applied in the primary test is determined as the average over all samples minus 2 times standard deviation over all samples. […]

rheumatoid arthritis = details: RA patients, after 24 months treatment; cited from earlier work

Structure (SMILES): C[C@@H]1C[C@H]2[C@@H]3CCC4=CC(=O)C=C[C@]4(C)[C@@]3(F)[C@@H](O)C[C@]2(C)[C@@]1(O)C(=O)CO [dexamethasone]
- IC50 [1]: ~1 nM

Structure (SMILES): C[C@H]1CCC/C=C/[C@@H]2C[C@H](O)C[C@H]2[C@H](O)/C=C/C(=O)O1 [BrefeldinA]
- secretion of TIMP-2 into the SF supernatant (TIMP-2 secretion by SFs): blocked

Structure (SMILES): CN(Cc1cnc2nc(N)nc(N)c2n1)c1ccc(C(=O)N[C@@H](CCC(=O)O)C(=O)O)cc1 [methotrexate]
- patients achieving an ACR50 score (rheumatoid arthritis): 30%
